Strand notation (5' to 3'): a small letter for the sugar, then the base; units joined by * are phosphorothioate-linked, units joined directly phosphodiester-linked; [ ] holds rarer units or linkages, { } end groups; capitals alone tell only the bases. k = constrained ethyl (cEt); [5mC] = 5-methylcytosine; d = 2'-deoxy (DNA)

The data set deals with human SMAD7 mRNA. Put plainly: Antisense inhibition of human SMAD7 mRNA expression in Hep3B cells by 3-10-3 cEt gapmers, 10,000 nM, electroporation (Example 2). In kind it is cell-based. Particulars: Hep3B cells, electroporation with 10,000 nM antisense oligonucleotide, approximately 24 hours, primer probe set RTS5062, relative to untreated control cells. The method in brief:
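qRT-PCR (RTS5062) of SMAD7 mRNA, normalised to RIBOGREEN total RNA, gave percent inhibition relative to untreated controls. Hep3B cells at 20,000 per well received 10,000 nM oligonucleotide by electroporation, with ~24 h treatment.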
As for “798995 (antisense kA*k[5mC]*kT*d[5mC]*dA*d[5mC]*dA*d[5mC]*dT*d[5mC]*dA*d[5mC]*dA*k[5mC]*kA*k[5mC]) [compound 798995]”, the % Inhibition – broadly, the drop in the measured response relative to a control, in per cent – amounted to 0%.
As to “798996 (antisense k[5mC]*kA*k[5mC]*dA*d[5mC]*dT*d[5mC]*dA*d[5mC]*dA*d[5mC]*dT*d[5mC]*kA*k[5mC]*kA) [compound 798996]”, the “% Inhibition” value was 49%.
Regarding “798997 (antisense kG*k[5mC]*kA*d[5mC]*dA*d[5mC]*dT*d[5mC]*dA*d[5mC]*dA*d[5mC]*dT*k[5mC]*kA*k[5mC]) [compound 798997]”, the “% Inhibition” value is recorded as 12%.
With “798998 (antisense k[5mC]*kG*k[5mC]*dA*d[5mC]*dA*d[5mC]*dT*d[5mC]*dA*d[5mC]*dA*d[5mC]*kT*k[5mC]*kA) [compound 798998]”, the “% Inhibition” value stood at 13%.
Same read-out and setting: next, “798999 (antisense k[5mC]*k[5mC]*kG*d[5mC]*dA*d[5mC]*dA*d[5mC]*dT*d[5mC]*dA*d[5mC]*dA*k[5mC]*kT*k[5mC]) [compound 798999]”: 17%; “799000 (antisense kG*k[5mC]*k[5mC]*dG*d[5mC]*dA*d[5mC]*dA*d[5mC]*dT*d[5mC]*dA*d[5mC]*kA*k[5mC]*kT) [compound 799000]”: 42%; “799001 (antisense k[5mC]*kA*kG*d[5mC]*d[5mC]*dG*d[5mC]*dA*d[5mC]*dA*d[5mC]*dT*d[5mC]*kA*k[5mC]*kA) [compound 799001]”: 37%.
As for “799002 (antisense kA*k[5mC]*kA*dG*d[5mC]*d[5mC]*dG*d[5mC]*dA*d[5mC]*dA*d[5mC]*dT*k[5mC]*kA*k[5mC]) [compound 799002]”, the “% Inhibition” value amounted to 15%.
Take “799003 (antisense kA*k[5mC]*kA*d[5mC]*dA*dG*d[5mC]*d[5mC]*dG*d[5mC]*dA*d[5mC]*dA*k[5mC]*kT*k[5mC]) [compound 799003]”: the “% inhibition of SMAD7 mRNA expression” value worked out at 0%.
Consider “799004 (antisense kG*k[5mC]*kA*d[5mC]*dA*d[5mC]*dA*d[5mC]*dA*dG*d[5mC]*d[5mC]*dG*k[5mC]*kA*k[5mC]) [compound 799004]”, for which the “% inhibition of SMAD7 mRNA expression” value turned out to be 0%.
Regarding “799005 (antisense k[5mC]*kG*kT*dG*d[5mC]*dA*d[5mC]*dA*d[5mC]*dA*d[5mC]*dA*dG*k[5mC]*k[5mC]*kG) [compound 799005]”, the “% inhibition of SMAD7 mRNA expression” value was determined as 0%.
The same measure, in the same setting: next, “799006 (k[5mC]*kG*k[5mC]*dT*d[5mC]*d[5mC]*dT*dG*d[5mC]*dA*d[5mC]*dA*d[5mC]*kG*k[5mC]*kG; antisense) [compound 799006]”: 0%.
With “799007 (kT*kG*k[5mC]*d[5mC]*dG*d[5mC]*dT*d[5mC]*d[5mC]*dT*dG*d[5mC]*dA*k[5mC]*kA*k[5mC]; antisense) [compound 799007]”, the “% inhibition of SMAD7 mRNA expression” value turned out to be 47%.
For the substance “799008 (k[5mC]*k[5mC]*kA*dT*d[5mC]*dT*dG*d[5mC]*d[5mC]*dG*d[5mC]*dT*d[5mC]*k[5mC]*kT*kG; antisense) [compound 799008]”, the “% inhibition of SMAD7 mRNA expression” value is given as 60%.
For “799009 (kT*k[5mC]*k[5mC]*d[5mC]*d[5mC]*dA*dT*d[5mC]*dT*dG*d[5mC]*d[5mC]*dG*k[5mC]*kT*k[5mC]; antisense) [compound 799009]”, the “% inhibition of SMAD7 mRNA expression” value is listed as 62%.
Take “799010 (k[5mC]*kG*kT*dT*dG*dT*d[5mC]*dT*d[5mC]*d[5mC]*d[5mC]*d[5mC]*dA*kT*k[5mC]*kT; antisense) [compound 799010]”: the “% inhibition of SMAD7 mRNA expression” value was 57%.
In the case of “799011 (k[5mC]*kA*kA*dA*dA*d[5mC]*dA*dA*dA*dG*dA*dG*d[5mC]*kA*k[5mC]*kG; antisense) [compound 799011]”, the “% inhibition of SMAD7 mRNA expression” value is 35%.
For “799012 (kA*kT*kA*dA*dG*dA*dG*dA*d[5mC]*dA*d[5mC]*dA*dA*kA*kA*k[5mC]; antisense) [compound 799012]”, the “% inhibition of SMAD7 mRNA expression” value worked out at 43%.
On to “799013 (kT*k[5mC]*k[5mC]*dA*dT*dA*dA*dG*dA*dG*dA*d[5mC]*dA*k[5mC]*kA*kA; antisense) [compound 799013]”, for which the “% Inhibition” value turned out to be 37%.
On to “799014 (kA*k[5mC]*kA*dT*d[5mC]*d[5mC]*dA*dT*dA*dA*dG*dA*dG*kA*k[5mC]*kA; antisense) [compound 799014]”, for which the “% Inhibition” value worked out at 29%.
Take “799015 (kG*kG*kG*dA*d[5mC]*dA*dT*d[5mC]*d[5mC]*dA*dT*dA*dA*kG*kA*kG; antisense) [compound 799015]”: the “% Inhibition” value is listed as 25%.
Turning to “799016 (k[5mC]*kA*kA*dA*d[5mC]*d[5mC]*dT*d[5mC]*dT*d[5mC]*dT*dG*d[5mC]*kT*kG*kG; antisense) [compound 799016]”, the “% Inhibition” value stood at 30%.
“799017 (kT*kG*k[5mC]*dA*dA*dA*d[5mC]*d[5mC]*dT*d[5mC]*dT*d[5mC]*dT*kG*k[5mC]*kT; antisense) [compound 799017]”: the “% Inhibition” value was 0%.
With “799018 (k[5mC]*kT*kG*d[5mC]*dA*dA*dA*d[5mC]*d[5mC]*dT*d[5mC]*dT*d[5mC]*kT*kG*k[5mC]; antisense) [compound 799018]”, the “% Inhibition” value is given as 29%.
As to “799019 (kA*k[5mC]*kT*dG*d[5mC]*dA*dA*dA*d[5mC]*d[5mC]*dT*d[5mC]*dT*k[5mC]*kT*kG; antisense) [compound 799019]”, the “% Inhibition” value turned out to be 36%.
For the substance “799020 (kG*kA*k[5mC]*dT*dG*d[5mC]*dA*dA*dA*d[5mC]*d[5mC]*dT*d[5mC]*kT*k[5mC]*kT; antisense) [compound 799020]”, the “% Inhibition” value is listed as 48%.
“799021 (kG*kG*kA*d[5mC]*dT*dG*d[5mC]*dA*dA*dA*d[5mC]*d[5mC]*dT*k[5mC]*kT*k[5mC]; antisense) [compound 799021]”: the “% Inhibition” value is reported as 62%.
In the case of “799022 (kG*kG*kG*dA*d[5mC]*dT*dG*d[5mC]*dA*dA*dA*d[5mC]*d[5mC]*kT*k[5mC]*kT; antisense) [compound 799022]”, the “% Inhibition” value came out at 61%.
“799023 (kT*kG*kG*dG*dA*d[5mC]*dT*dG*d[5mC]*dA*dA*dA*d[5mC]*k[5mC]*kT*k[5mC]; antisense) [compound 799023]”: the “% inhibition of SMAD7 mRNA expression” value was 42%.
On to “799024 (k[5mC]*kT*kT*dG*dG*dG*dA*d[5mC]*dT*dG*d[5mC]*dA*dA*kA*k[5mC]*k[5mC]; antisense) [compound 799024]”, for which the “% inhibition of SMAD7 mRNA expression” value was 0%.
For the substance “799025 (k[5mC]*kG*k[5mC]*dT*dT*dG*dG*dG*dA*d[5mC]*dT*dG*d[5mC]*kA*kA*kA; antisense) [compound 799025]”, the “% inhibition of SMAD7 mRNA expression” value was found to be 10%.
Turning to “799026 (k[5mC]*k[5mC]*kG*d[5mC]*dT*dT*dG*dG*dG*dA*d[5mC]*dT*dG*k[5mC]*kA*kA; antisense) [compound 799026]”, the “% inhibition of SMAD7 mRNA expression” value is 1%.
As for “799027 (kA*k[5mC]*k[5mC]*dG*d[5mC]*dT*dT*dG*dG*dG*dA*d[5mC]*dT*kG*k[5mC]*kA; antisense) [compound 799027]”, the “% inhibition of SMAD7 mRNA expression” value was 46%.
In the case of “799028 (kA*kG*kA*d[5mC]*dA*d[5mC]*d[5mC]*dG*d[5mC]*dT*dT*dG*dG*kG*kA*k[5mC]; antisense) [compound 799028]”, the “% inhibition of SMAD7 mRNA expression” value is 37%.
Consider “799029 (kG*kG*kA*dG*dA*dG*dA*d[5mC]*dA*d[5mC]*d[5mC]*dG*d[5mC]*kT*kT*kG; antisense) [compound 799029]”, for which the “% inhibition of SMAD7 mRNA expression” value is recorded as 0%.
Turning to “799030 (kG*k[5mC]*kA*dG*dG*dA*dG*dA*dG*dA*d[5mC]*dA*d[5mC]*k[5mC]*kG*k[5mC]; antisense) [compound 799030]”, the “% inhibition of SMAD7 mRNA expression” value was 52%.
Take “799031 (kT*kG*k[5mC]*d[5mC]*dT*d[5mC]*dT*dG*d[5mC]*d[5mC]*d[5mC]*d[5mC]*dA*k[5mC]*kT*kG; antisense) [compound 799031]”: the “% inhibition of SMAD7 mRNA expression” value came to 46%.
Regarding “799032 (kA*kG*kG*dT*dA*d[5mC]*dT*dG*d[5mC]*d[5mC]*dT*d[5mC]*dT*kG*k[5mC]*k[5mC]; antisense) [compound 799032]”, the “% inhibition of SMAD7 mRNA expression” value is given as 42%.
For “799033 (k[5mC]*k[5mC]*k[5mC]*dA*dG*dG*dT*dA*d[5mC]*dT*dG*d[5mC]*d[5mC]*kT*k[5mC]*kT; antisense) [compound 799033]”, the “% Inhibition” value is listed as 35%.
In the case of “799034 (k[5mC]*kT*kT*dG*d[5mC]*d[5mC]*d[5mC]*dA*dG*dG*dT*dA*d[5mC]*kT*kG*k[5mC]; antisense) [compound 799034]”, the “% Inhibition” value was determined as 12%.
Take “799035 (k[5mC]*kG*k[5mC]*d[5mC]*dA*dG*d[5mC]*dT*dT*dG*d[5mC]*d[5mC]*d[5mC]*kA*kG*kG; antisense) [compound 799035]”: the “% Inhibition” value was 0%.
As to “799036 (kA*kG*k[5mC]*d[5mC]*dG*d[5mC]*d[5mC]*dA*dG*d[5mC]*dT*dT*dG*k[5mC]*k[5mC]*k[5mC]; antisense) [compound 799036]”, the “% Inhibition” value is given as 8%.
As to “799037 (k[5mC]*k[5mC]*k[5mC]*d[5mC]*dA*dG*d[5mC]*d[5mC]*dG*d[5mC]*d[5mC]*dA*dG*k[5mC]*kT*kT; antisense) [compound 799037]”, the “% Inhibition” value came out at 9%.
Same read-out and setting: next, “799038 (kG*kG*kA*d[5mC]*d[5mC]*d[5mC]*d[5mC]*dA*dG*d[5mC]*d[5mC]*dG*d[5mC]*k[5mC]*kA*kG; antisense) [compound 799038]”: 19%; “799039 (kT*kG*k[5mC]*dT*dG*dG*dG*dA*d[5mC]*d[5mC]*d[5mC]*d[5mC]*dA*kG*k[5mC]*k[5mC]; antisense) [compound 799039]”: 19%.
For the substance “799040 (kA*kG*k[5mC]*dT*dG*d[5mC]*dT*dG*dG*dG*dA*d[5mC]*d[5mC]*k[5mC]*k[5mC]*kA; antisense) [compound 799040]”, the “% Inhibition” value came out at 51%.

Source of the values: patent publication US10517889B2, “Modulators of SMAD7 expression” (Ionis Pharmaceuticals, Inc., priority 2017, dated 2019).
